The results in this text go back to patent publication US8686150B2 (Sanofi, priority 2011, dated 2014).

The target of the assay is T1, human full-length recombinant PKC βII (Homo sapiens, UniProt P05771).
T1 construct: Active human full-length recombinant PKC βII; purchased Invitrogen GmbH, Darmstadt, Germany
Description: Determination of PKC βII inhibition (Caliper mobility-shift kinase assay, Fluorescein-RFARKGSLRQKNV peptide substrate). Type of assay: biochemical. Particulars: example compounds at a final concentration of 1.14 μM (±0.15 μM). The procedure, abridged:
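Compounds were tested at 1.14 μM final. Enzyme was activated by PS, DAG and CaCl2 in Hepes pH 7.4 with MgCl2, with substrate 3 μM and ATP 120 μM as pre-mix concentrations. After 60 min at 32 °C and an EDTA stop, Caliper separation gave fractional turnover, which was normalised to no-compound and no-enzyme controls.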

T1 sequence (P05771 1-673 isoform P05771-2): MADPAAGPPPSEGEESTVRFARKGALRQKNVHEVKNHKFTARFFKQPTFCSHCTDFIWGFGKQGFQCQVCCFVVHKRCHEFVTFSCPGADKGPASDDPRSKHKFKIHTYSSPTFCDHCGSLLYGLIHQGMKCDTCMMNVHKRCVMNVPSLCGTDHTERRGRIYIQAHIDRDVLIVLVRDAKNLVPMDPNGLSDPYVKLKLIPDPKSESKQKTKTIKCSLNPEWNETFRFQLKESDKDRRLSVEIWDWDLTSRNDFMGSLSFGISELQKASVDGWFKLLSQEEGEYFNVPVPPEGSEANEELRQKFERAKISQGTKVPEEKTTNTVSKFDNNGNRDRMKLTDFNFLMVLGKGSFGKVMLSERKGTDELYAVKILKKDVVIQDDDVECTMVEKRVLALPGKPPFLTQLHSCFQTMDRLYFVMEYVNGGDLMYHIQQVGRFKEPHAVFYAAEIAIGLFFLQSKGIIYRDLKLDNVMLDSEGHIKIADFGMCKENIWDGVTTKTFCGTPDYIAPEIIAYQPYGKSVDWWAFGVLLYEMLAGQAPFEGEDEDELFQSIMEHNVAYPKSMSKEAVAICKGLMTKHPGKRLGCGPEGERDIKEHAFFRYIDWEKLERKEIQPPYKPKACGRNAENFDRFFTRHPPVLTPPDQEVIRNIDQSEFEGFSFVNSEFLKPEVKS

For orientation: inhibition means the drop in the measured response relative to a control, in per cent. With `COC(=O)[C@H]1CNCCN1C(=O)c1cc(-c2ccc(O)cc2)nc2[nH]nc(C)c12` [Example 206, (R)-1-[6-(4-Hydroxy-phenyl)-3-methyl-1H-pyrazolo[3,4-b]pyridine-4-carbonyl]-piperazine-2-carboxylic acid methyl ester], the inhibition at 1.14 µM is 98%.
The value for `Cc1n[nH]c2nc(-c3ccc(O)cc3)cc(C(=O)NC3CN4CCC3CC4)c12` (centres unmarked) [Example 207, 6-(4-Hydroxy-phenyl)-3-methyl-1H-pyrazolo[3,4-b]pyridine-4-carboxylic acid (1-aza-bicyclo[2.2.2]oct-3-yl)-amide] was 94%; that for `Cc1n[nH]c2nc(-c3ccc(O)cc3)cc(C(=O)N[C@@H]3CCC(=O)NC3)c12` [Example 208, 6-(4-Hydroxy-phenyl)-3-methyl-1H-pyrazolo[3,4-b]pyridine-4-carboxylic acid ((R)-6-oxo-piperidin-3-yl)-amide] was 88%.
The value for `CCCC[C@H]1CN(C(=O)c2cc(-c3ccc(O)cc3)nc3[nH]nc(C)c23)CCN1` [Example 209, ((S)-3-Butyl-piperazin-1-yl)-[6-(4-hydroxy-phenyl)-3-methyl-1H-pyrazolo[3,4-b]pyridin-4-yl]-methanone] was 97%; that for `CC[C@H]1CN(C(=O)c2cc(-c3ccc(O)cc3)nc3[nH]nc(C)c23)CCN1` [Example 210, ((S)-3-Ethyl-piperazin-1-yl)-[6-(4-hydroxy-phenyl)-3-methyl-1H-pyrazolo[3,4-b]pyridin-4-yl]-methanone] was 100%; that for `COC(=O)[C@H]1CN(C(=O)c2cc(-c3ccc(O)cc3)nc3[nH]nc(C)c23)CCN1` [Example 211, (R)-4-[6-(4-Hydroxy-phenyl)-3-methyl-1H-pyrazolo[3,4-b]pyridine-4-carbonyl]-piperazine-2-carboxylic acid methyl ester] was 64%.
For the molecule `COC[C@H]1CN(C(=O)c2cc(-c3ccc(O)cc3)nc3[nH]nc(C)c23)CCN1` [Example 212, [6-(4-Hydroxy-phenyl)-3-methyl-1H-pyrazolo[3,4-b]pyridin-4-yl]-((R)-3-methoxymethyl-piperazin-1-yl)-methanone], the inhibition at 1.14 µM turned out to be 94%.
The figure for `CO[C@H]1CNC[C@@H]1NC(=O)c1cc(-c2ccc(O)cc2)nc2[nH]nc(C)c12` [Example 213, 6-(4-Hydroxy-phenyl)-3-methyl-1H-pyrazolo[3,4-b]pyridine-4-carboxylic acid ((3S,4S)-4-methoxy-pyrrolidin-3-yl)-amide] is 94%; for `Cc1n[nH]c2nc(-c3ccc(O)cc3)cc(C(=O)N[C@H]3[C@@H]4CNC[C@@H]43)c12` [Example 214, 6-(4-Hydroxy-phenyl)-3-methyl-1H-pyrazolo[3,4-b]pyridine-4-carboxylic acid (3-azabicyclo[3.1.0]hex-6-yl)-amide] it is 73%; for `Cc1n[nH]c2nc(-c3ccc(O)cc3)cc(C(=O)N3CCN[C@@H](CC(C)C)C3)c12` [Example 215, [6-(4-Hydroxy-phenyl)-3-methyl-1H-pyrazolo[3,4-b]pyridin-4-yl]-((S)-3-isobutyl-piperazin-1-yl)-methanone] it is 99%.
The value for `Cc1n[nH]c2nc(-c3ccc(O)cc3)cc(C(=O)NCC3CCNC3)c12` (centres unmarked) [Example 216, 6-(4-Hydroxy-phenyl)-3-methyl-1H-pyrazolo[3,4-b]pyridine-4-carboxylic acid (pyrrolidin-3-ylmethyl)-amide] was 92%; that for `Cc1n[nH]c2nc(-c3ccc(O)cc3)cc(C(=O)N3CCNCC3Cc3ccccc3)c12` (centres unmarked) [Example 217, (2-Benzyl-piperazin-1-yl)-[6-(4-hydroxy-phenyl)-3-methyl-1H-pyrazolo[3,4-b]pyridin-4-yl]-methanone] was 93%.
The value for `Cc1n[nH]c2nc(-c3ccc(O)cc3)cc(C(=O)NCCC3CCCN3C)c12` (centres unmarked) [Example 218, 6-(4-Hydroxy-phenyl)-3-methyl-1H-pyrazolo[3,4-b]pyridine-4-carboxylic acid [2-(1-methyl-pyrrolidin-2-yl)-ethyl]-amide] was 85%; that for `Cc1n[nH]c2nc(-c3ccc(O)cc3)cc(C(=O)NC3CC4CCC(C3)N4C)c12` (centres unmarked) [Example 219, 6-(4-Hydroxy-phenyl)-3-methyl-1H-pyrazolo[3,4-b]pyridine-4-carboxylic acid (8-methyl-8-aza-bicyclo[3.2.1]oct-3-yl)-amide] was 89%; that for `Cc1n[nH]c2nc(-c3ccc(O)cc3)cc(C(=O)NC3CCN(C)CC3)c12` [Example 220, 6-(4-Hydroxy-phenyl)-3-methyl-1H-pyrazolo[3,4-b]pyridine-4-carboxylic acid (1-methyl-piperidin-4-yl)-amide] was 88%.
For the molecule `Cc1n[nH]c2nc(-c3ccc(O)cc3)cc(C(=O)N3CCNC(C)C3)c12` (centres unmarked) [Example 221, [6-(4-Hydroxy-phenyl)-3-methyl-1H-pyrazolo[3,4-b]pyridin-4-yl]-(3-methyl-piperazin-1-yl)-methanone], the inhibition at 1.14 µM turned out to be 100%.
The figure for `Cc1n[nH]c2nc(-c3ccc(O)cc3)cc(C(=O)N[C@@H]3CCCNC3)c12` [Example 222, 6-(4-Hydroxy-phenyl)-3-methyl-1H-pyrazolo[3,4-b]pyridine-4-carboxylic acid (R)-piperidin-3-ylamide] is 97%.
Turning to `Cc1n[nH]c2nc(-c3ccc(O)cc3)cc(C(=O)NC3CC4CCCC(C3)N4C)c12` (centres unmarked) [Example 223, 6-(4-Hydroxy-phenyl)-3-methyl-1H-pyrazolo[3,4-b]pyridine-4-carboxylic acid (9-methyl-9-aza-bicyclo[3.3.1]non-3-yl)-amide], the inhibition at 1.14 µM turned out to be 74%.
As to `Cc1n[nH]c2nc(-c3ccc(O)cc3)cc(C(=O)N3CCNC[C@H]3Cc3ccccc3)c12` [Example 224, ((R)-2-Benzyl-piperazin-1-yl)-[6-(4-hydroxy-phenyl)-3-methyl-1H-pyrazolo[3,4-b]pyridin-4-yl]-methanone], the inhibition at 1.14 µM was 92%.
In the case of `Cc1n[nH]c2nc(-c3ccc(O)cc3)cc(C(=O)N3CCNC[C@@H]3Cc3ccccc3)c12` [Example 225, ((S)-2-Benzyl-piperazin-1-yl)-[6-(4-hydroxy-phenyl)-3-methyl-1H-pyrazolo[3,4-b]pyridin-4-yl]-methanone], the inhibition at 1.14 µM stood at 85%.
Take `Cc1n[nH]c2nc(-c3ccc(O)cc3)cc(C(=O)N3CCC4CNCC43)c12` (centres unmarked) [Example 226, (Hexahydro-pyrrolo[3,4-b]pyrrol-1-yl)-[6-(4-hydroxy-phenyl)-3-methyl-1H-pyrazolo[3,4-b]pyridin-4-yl]-methanone]: the inhibition at 1.14 µM was 95%.
Take `Cc1n[nH]c2nc(-c3ccc(O)cc3)cc(C(=O)N3C[C@H]4CC[C@@H](C3)C4N)c12` (some centres unmarked) [Example 227, (8-Amino-3-aza-bicyclo[3.2.1]oct-3-yl)-[6-(4-hydroxy-phenyl)-3-methyl-1H-pyrazolo[3,4-b]pyridin-4-yl]-methanone]: the inhibition at 1.14 µM is 100%.
The value for `Cc1n[nH]c2nc(-c3ccc(O)cc3)cc(C(=O)N[C@@H]3[C@H]4CC[C@H](C4)[C@H]3CN)c12` [Example 228, 6-(4-Hydroxy-phenyl)-3-methyl-1H-pyrazolo[3,4-b]pyridine-4-carboxylic acid (3-aminomethyl-bicyclo[2.2.1]hept-2-yl)-amide] was 91%.
The figure for `Cc1n[nH]c2nc(-c3ccc(O)cc3)cc(C(=O)N3CCCC4CNCCC43)c12` (centres unmarked) [Example 230, [6-(4-Hydroxy-phenyl)-3-methyl-1H-pyrazolo[3,4-b]pyridin-4-yl]-(octahydro-[1,6]naphthyridin-1-yl)-methanone] is 93%; for `Cc1n[nH]c2nc(-c3ccc(O)cc3)cc(C(=O)NC3CCC(N)CC3)c12` (centres unmarked) [Example 231, 6-(4-Hydroxy-phenyl)-3-methyl-1H-pyrazolo[3,4-b]pyridine-4-carboxylic acid (4-amino-cyclohexyl)-amide] it is 84%.
Take `Cc1n[nH]c2nc(-c3ccc(O)cc3)cc(C(=O)N3CCNC[C@H]3C(=O)NC(C)(C)C)c12` [Example 232, (S)-1-[6-(4-Hydroxy-phenyl)-3-methyl-1H-pyrazolo[3,4-b]pyridine-4-carbonyl]-piperazine-2-carboxylic acid tert-butylamide]: the inhibition at 1.14 µM was 95%.
Consider `Cc1n[nH]c2nc(-c3ccc(O)cc3)cc(C(=O)N3CCN[C@@H](C(C)C)C3)c12` [Example 233, [6-(4-Hydroxy-phenyl)-3-methyl-1H-pyrazolo[3,4-b]pyridin-4-yl]-((S)-3-isopropyl-piperazin-1-yl)-methanone], for which the inhibition at 1.14 µM stood at 95%.
In the case of `Cc1n[nH]c2nc(-c3ccc(O)cc3)cc(C(=O)N3CC4(CCNCC4)C3)c12` [Example 234, (2,7-Diaza-spiro[3.5]non-2-yl)-[6-(4-hydroxy-phenyl)-3-methyl-1H-pyrazolo[3,4-b]pyridin-4-yl]-methanone], the inhibition at 1.14 µM was 94%.
The value for `Cc1n[nH]c2nc(-c3ccc(O)cc3)cc(C(=O)N3CCC4(CCCNC4)C3)c12` (centres unmarked) [Example 235, (2,7-Diaza-spiro[4.5]dec-2-yl)-[6-(4-hydroxy-phenyl)-3-methyl-1H-pyrazolo[3,4-b]pyridin-4-yl]-methanone] was 89%; that for `Cc1n[nH]c2nc(-c3ccc(O)cc3)cc(C(=O)N3CCC4(CCNCC4)CC3)c12` [Example 236, (3,9-Diaza-spiro[5.5]undec-3-yl)-[6-(4-hydroxy-phenyl)-3-methyl-1H-pyrazolo[3,4-b]pyridin-4-yl]-methanone] was 84%.
With `Cc1n[nH]c2nc(-c3ccc(O)cc3)cc(C(=O)N3CC4(CCNCC4)c4ccccc43)c12` [Example 237], the inhibition at 1.14 µM turned out to be 59%.
The figure for `Cc1n[nH]c2nc(-c3ccc(O)cc3)cc(C(=O)N3CC[C@@H](N(C)C)C3)c12` [Example 238, ((R)-3-Dimethylamino-pyrrolidin-1-yl)-[6-(4-hydroxy-phenyl)-3-methyl-1H-pyrazolo[3,4-b]pyridin-4-yl]-methanone] is 77%.
